Counter-ions that a name gives are not always drawn.

The target in the first data set is T1, adenosine A2A receptor (Rattus norvegicus, UniProt P30543).
T1 construct: from tissue; host or cells: rat corpus striatum membrane preparation
T1 sequence (P30543 whole entry): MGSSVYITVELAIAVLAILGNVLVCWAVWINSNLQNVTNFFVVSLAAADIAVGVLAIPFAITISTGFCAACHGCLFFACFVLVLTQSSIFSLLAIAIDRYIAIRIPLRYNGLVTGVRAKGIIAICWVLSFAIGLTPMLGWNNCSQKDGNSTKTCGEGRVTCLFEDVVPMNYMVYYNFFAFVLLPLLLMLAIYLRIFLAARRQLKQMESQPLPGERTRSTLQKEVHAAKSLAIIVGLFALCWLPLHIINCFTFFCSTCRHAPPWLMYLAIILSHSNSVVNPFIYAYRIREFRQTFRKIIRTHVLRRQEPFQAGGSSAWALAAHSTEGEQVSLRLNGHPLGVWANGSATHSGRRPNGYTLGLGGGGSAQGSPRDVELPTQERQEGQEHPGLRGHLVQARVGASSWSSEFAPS
Put plainly: Adenosine A2A receptor binding test (3H-CGS 21680 binding). As to conditions: read-out: A2A Receptor inhibition rate (%) at 10^−7 mol/L. The procedure: The test was carried out according to the method of Bruns et al. [Molecular Pharmacology, vol. 29, p.
Rat corpus striatum was suspended in an ice-cold 50 mmol/L tris(hydroxymethyl)aminomethane hydrochloride (referred to as “Tris HCl” hereinafter) buffer (pH 7.7) using a Polytron homogenizer (produced by Kinematica Co.). The suspension was centrifuged (50,000×g, 10 minutes), and the resulting precipitate was again suspended in the same amount of a 50 mmol/L Tris HCl buffer, followed by centrifugation under the same conditions. The resulting finalprecipitate was again suspended in a 50 mmol/L-Tris HCl buffer [containing 10 mmol/L of magnesium chloride and 0.02 unit/mg tissue of adenosine deaminase (produced by Sigma Co.)] so that the tissue concentration was 5 mg (wet weight)/mL.
The radioactivity on the filter was determined with a liquid scintillation counter (produced by Packard Instrument Co.).
In the equation, X represents Amount of binding in the presence of a medicament, Y represents Amount of nonspecific binding, and Z represents Amount of total binding.
As for `CC1CCCN(C(=O)c2cc3nc(-c4ccco4)nn3c(N)n2)C1` (stereo not drawn) [Compound 145, 5-Amino-2-(2-furyl)[1,2,4]triazolo[1,5-c]pyrimidin-7-yl 3-methylpiperidino ketone], the inhibition at 0.1 µM is 60%.

The data set is the same for the next values; noted with them: test compound 10^−7 mol/L; 3H-CGS 21680 binding, rat corpus striatum.
For “5-Amino-2-(2-furyl)-7-(2-phenylthienyl)[1,2,4]triazolo[1,5-c]pyrimidine [Compound 65]”, the “A2A Receptor inhibition rate (%) at 10^−7 mol/L” value stood at 96%.
The same measure, in the same setting: for `Nc1nc(C(=O)N2CCCC2)cc2nc(-c3ccco3)nn12` [Compound 148, 5-Amino-2-(2-furyl)[1,2,4]triazolo[1,5-c]pyrimidin-7-yl pyrrolidinyl ketone] the value was 75%.

Still in this data set, the particulars now being: test compound 10^−7 mol/L; 3H-CGS 21680 binding, rat corpus striatum; read-out: A2A Receptor inhibition rate (%) at 10^−7 mol/L.
As for `COc1ccc(CNCc2cc3nc(-c4ccco4)nn3c(N)n2)cc1OC` [Compound 42, 5-Amino-7-(3,4-dimethoxybenzylaminomethyl)-2-(2-furyl)-[1,2,4]triazolo[1,5-c]pyrimidine dihydrochloride], the inhibition at 0.1 µM is 62%.
For the molecule `CCN(Cc1ccccc1)C(=O)c1cc2nc(-c3ccco3)nn2c(N)n1` [Compound 99, 5-Amino-2-(2-furyl)[1,2,4]triazolo[1,5-c]pyrimidine-7-carboxylic acid (N-benzyl-N-ethyl)amide], the inhibition at 0.1 µM is 69%.
Same read-out and setting: for `CN(Cc1ccco1)C(=O)c1cc2nc(-c3ccco3)nn2c(N)n1` [Compound 101, 5-Amino-2-(2-furyl)[1,2,4]triazolo[1,5-c]pyrimidine-7-carboxylic acid [N-(2-furylmethyl)-N-methyl]amide] the value was 83%; for `CN(Cc1cccnc1Cl)C(=O)c1cc2nc(-c3ccco3)nn2c(N)n1` [Compound 128, 5-Amino-2-(2-furyl)[1,2,4]triazolo[1,5-c]pyrimidine-7-carboxylic acid [N-(2-chloropyridin-3-ylmethyl)-N-methyl]-amide], 59%; for `CC(=O)NCCNCc1ccc(-c2cc3nc(-c4ccco4)nn3c(N)n2)cc1` [Compound 16, 7-{4-[2-(N-acetylamino)ethylaminomethyl]phenyl}-5-amino-2-(2-furyl)[1,2,4]triazolo[1,5-c]pyrimidine monohydrochloride], 36%.
Still for that read-out and setting: the same measure for `Cc1ncccc1CN(C)C(=O)c1cc2nc(-c3ccco3)nn2c(N)n1` [Compound 134, 5-Amino-2-(2-furyl)[1,2,4]triazolo[1,5-c]pyrimidine-7-carboxylic acid [N-methyl-N-(2-methylpyridin-3-ylmethyl)]-amide]: 60%; for `N#CCCN(Cc1cccnc1)C(=O)c1cc2nc(-c3ccco3)nn2c(N)n1` [Compound 103, 5-Amino-2-(2-furyl)[1,2,4]triazolo[1,5-c]pyrimidine-7-carboxylic acid [N-(2-cyanoethyl)-N-(3-pyridylmethyl)]amide]: 54%; for `Nc1nc(C(=O)N2CCCCC2)cc2nc(-c3ccco3)nn12` [Compound 142, 5-Amino-2-(2-furyl)[1,2,4]triazolo[1,5-c]pyrimidin-7-yl piperidino ketone]: 71%.
The same measure, in the same setting: for `Nc1nc(CN2CCN(CC3CC3)CC2)cc2nc(-c3ccco3)nn12` [Compound 50, 5-Amino-7-[4-(cyclopropylmethyl)piperazin-1-ylmethyl]-2-(2-furyl)[1,2,4]triazolo[1,5-c]pyrimidine dihydrochloride] the value was 65%; for `COc1cc(CNCc2cc3nc(-c4ccco4)nn3c(N)n2)cc(OC)c1` [Compound 43, 5-Amino-7-[(3,5-dimethoxybenzylamino)methyl]-2-(2-furyl)-[1,2,4]triazolo[1,5-c]pyrimidine dihydrochloride], 60%.
Take `COc1cc(CNCc2ccc(-c3cc4nc(-c5ccco5)nn4c(N)n3)cc2)cc(OC)c1` [Compound 17, 5-Amino-7-[4-(3,5-dimethoxybenzylaminomethyl)phenyl]-2-(2-furyl)[1,2,4]triazolo[1,5-c]pyrimidine monohydrochloride]: the inhibition at 0.1 µM came to 70%.
Still for that read-out and setting: the same measure for `Nc1nc(CNCCc2ccccn2)cc2nc(-c3ccco3)nn12` [Compound 44, 5-Amino-7-[2-(2-pyridyl)ethylaminomethyl]-2-(2-furyl)-[1,2,4]triazolo[1,5-c]pyrimidine dihydrochloride]: 56%; for `COC(C)(C)c1cc2nc(-c3ccco3)nn2c(N)n1` [Compound 25, 5-Amino-2-(2-furyl)-7-(1-methyl-1-methoxyethyl)[1,2,4]-triazolo[1,5-c]pyrimidine]: 47%.
Consider `CN(Cc1cccc(F)c1)C(=O)c1cc2nc(-c3ccco3)nn2c(N)n1` [Compound 120, 5-Amino-2-(2-furyl)[1,2,4]triazolo[1,5-c]pyrimidine-7-carboxylic acid [N-(3-fluorobenzyl)-N-methyl]amide monohydrochloride], for which the inhibition at 0.1 µM came out at 61%.

System in a further data set: not given
Assay: not given
Conditions: not given
`CN(C)CCN(Cc1ccccc1)C(=O)c1cc2nc(-c3ccco3)nn2c(N)n1`: the melting point (in general, the temperature, or range, at which the solid turns liquid) lay within 215.2 to 215.4 °C.
Still for that read-out and setting: the same measure for `Nc1nc(C2=CCN(CC3CC3)CC2)cc2nc(-c3ccco3)nn12`: 196.9 to 197.4 °C; for `Nc1nc(-c2cccc(C=O)c2)cc2nc(-c3ccco3)nn12` [Compound 18, 5-Amino-7-(3-formylphenyl)-2-(2-furyl)[1,2,4]triazolo[1,5-c]pyrimidine]: 212.8 to 213.2 °C; for `Nc1nc(CNCCc2ccccn2)cc2nc(-c3ccco3)nn12` (as salt: hydrochloride) [Compound 44, 5-Amino-7-[2-(2-pyridyl)ethylaminomethyl]-2-(2-furyl)-[1,2,4]triazolo[1,5-c]pyrimidine dihydrochloride]: 249.5 to 249.7 °C.
On the same count and under the same terms, the same measure for `CCN1CCN(Cc2cc3nc(-c4ccco4)nn3c(N)n2)CC1` (as salt: hydrochloride) [Compound 48, 5-Amino-7-(4-ethylpiperazin-1-ylmethyl)-2-(2-furyl)[1,2,4]-triazolo[1,5-c]pyrimidine trihydrochloride]: 262 to 262.4 °C; for `Nc1nc(COc2ccccc2)cc2nc(-c3ccco3)nn12`: 247.2 to 247.4 °C.
Still for that read-out and setting: for `COc1ccc(CNCc2ccc(-c3cc4nc(-c5ccco5)nn4c(N)n3)cc2)cc1OC` (as salt: hydrochloride) the value was 256.2 to 256.8 °C.
Molecule `Nc1nc(COc2ccccn2)cc2nc(-c3ccco3)nn12` [Compound 32, 5-Amino-2-(2-furyl)-7-(pyridin-2-yloxymethyl)[1,2,4]-triazolo[1,5-c]pyrimidine] yielded a melting point of 229 to 229.2 °C.
On the same count and under the same terms, the same measure for `Nc1nc(CNCCCN2CCCC2=O)cc2nc(-c3ccco3)nn12` (as salt: hydrochloride) [Compound 47, 5-Amino-2-(2-furyl)-7-[3-(2-oxopyrrolidin-1-yl)propylamino-methyl][1,2,4]triazolo[1,5-c]pyrimidine dihydrochloride]: 229.1 to 229.8 °C; for `COc1ccc(CN(Cc2cc3nc(-c4ccco4)nn3c(N)n2)C(C)=O)cc1OC` [Compound 34, 7-[(N-acetyl-3,4-dimethoxybenzylamino)methyl]-5-amino-2-(2-furyl)[1,2,4]triazolo[1,5-c]pyrimidine]: 136 to 136.5 °C; for `Nc1nc(CN2CCN(CC3CC3)CC2)cc2nc(-c3ccco3)nn12` (as salt: hydrochloride) [Compound 50, 5-Amino-7-[4-(cyclopropylmethyl)piperazin-1-ylmethyl]-2-(2-furyl)[1,2,4]triazolo[1,5-c]pyrimidine dihydrochloride]: 270 °C (dec.).
Still for that read-out and setting: for `Nc1nc(-c2ccc(CNCCCN3CCCC3=O)cc2)cc2nc(-c3ccco3)nn12` (as salt: hydrochloride) [Compound 14, 5-Amino-2-(2-furyl)-7-{4-[3-(2-oxopyrrolidin-1-yl)propylaminomethyl]phenyl}[1,2,4]triazolo[1,5-c]pyrimidine monohydrochloride] the value was 269.2 to 269.8 °C; for `Nc1nc(/C=C/CNCC2CC2)cc2nc(-c3ccco3)nn12` (as salt: HCl) [Compound 68, 5-Amino-7-[3-(cyclopropylmethylamino)-(E)-propan-1-en-1-yl]-2-(2-furyl)[1,2,4]triazolo[1,5-c]pyrimidine], 263.5 to 264.2 °C; for `Nc1nc(CNc2ccccc2)cc2nc(-c3ccco3)nn12` [Compound 36, 5-Amino-7-anilinomethyl-2-(2-furyl)[1,2,4]triazolo[1,5-c]-pyrimidine], 279.2 to 279.6 °C.
Same read-out and setting: for `CN(Cc1ccccc1)C(=O)c1cc2nc(-c3ccco3)nn2c(N)n1` (as salt: HCl) [Compound 78, 5-Amino-2-(2-furyl)[1,2,4]triazolo[1,5-c]pyrimidine-7-carboxylic acid (N-benzyl-N-methyl)amide] the value was 188.5 to 189.1 °C; for `COCC(C)NCc1ccccc1-c1cc2nc(-c3ccco3)nn2c(N)n1` (racemic) (as salt: hydrochloride) [Compound 9, (±)-5-Amino-2-(2-furyl)-7-[{2-[(2-methoxy-1-methylethyl)aminomethyl]phenyl}(1,2,4]triazolo[1,5-c]pyrimidinemonohydrochloride], 178.9 to 179.7 °C.

Source of the values: US20060058320A1, “[1,2,4] Triazolo[1,5-c]pyrimidine derivatives” (KYOWA HAKKO KOGYO CO., LTD., priority 2002, published 2006).
